In publication doi:10.1101/2024.08.19.608619, “Discovery of potent SARS-CoV-2 nsp3 macrodomain inhibitors uncovers lack of translation to cellular antiviral response” (bioRxiv, 2024):
Read-outs that look alike come from different tables or passages of the source.

What was measured:
Test in all cases: biochemical
Design in all cases: In vitro kinase panel profiling, per cent remaining kinase activity at 10 uM
[1] = biological target: EGFR(h) (Homo sapiens, UniProt P00533); details: atp_concentration=10, read-out: % of control remaining
Source text: (§1) We derisk potential for off-target activity by profiling the compound in a CEREP panel, a standard secondary pharmacology assessment, as well as a kinase panel to derisk a potential hinge-binding motif in our leads, and a PARP panel to derisk activity against human […]. Reassuringly, the compounds are selective, with the only off-targets being moderate human CHRM2 and KOR receptors activity associated with ASAP-0011198.

[2] = biological target: T1, MLK1(h) (Homo sapiens, UniProt P80192); details: atp_concentration=45, read-out: % of control remaining
T1 construct: gene MAP3K9
Source text: as §1

[3] = biological target: T2, AMPKα1(h) (Homo sapiens, UniProt Q13131); details: atp_concentration=45, read-out: % of control remaining
T2 construct: gene PRKAA1
Source text: as §1

[4] = biological target: KDR(h) (Homo sapiens, UniProt P35968); details: atp_concentration=90, read-out: % of control remaining
Source text: as §1

[5] = biological target: T3, Rsk1(h) (Homo sapiens, UniProt Q15418); details: atp_concentration=45, read-out: % of control remaining
T3 construct: gene RPS6KA1
Source text: as §1

[6] = biological target: T4, IRAK4(h) (Homo sapiens, UniProt Q9NWZ3); details: atp_concentration=200, read-out: % of control remaining
T4 sequence (Q9NWZ3 1-460): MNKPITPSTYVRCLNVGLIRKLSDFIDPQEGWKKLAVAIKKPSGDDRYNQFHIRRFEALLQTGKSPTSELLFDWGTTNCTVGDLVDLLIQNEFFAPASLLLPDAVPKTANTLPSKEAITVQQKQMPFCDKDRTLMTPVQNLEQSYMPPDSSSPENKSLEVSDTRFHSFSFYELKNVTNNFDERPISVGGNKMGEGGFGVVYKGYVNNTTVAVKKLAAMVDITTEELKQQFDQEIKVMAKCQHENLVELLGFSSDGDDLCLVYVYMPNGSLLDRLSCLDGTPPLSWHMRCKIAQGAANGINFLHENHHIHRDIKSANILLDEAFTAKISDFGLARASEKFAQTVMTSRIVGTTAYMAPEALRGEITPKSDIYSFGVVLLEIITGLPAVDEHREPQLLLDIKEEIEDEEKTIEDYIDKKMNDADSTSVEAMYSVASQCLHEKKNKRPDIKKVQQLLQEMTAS
Source text: as §1

[7] = biological target: SRPK1(h) (Homo sapiens, UniProt Q96SB4); details: atp_concentration=10, read-out: % of control remaining
Source text: as §1

[8] = biological target: T5, PI3 Kinase (p110δ/p85α)(h) (Homo sapiens, UniProt O00329); details: atp_concentration=200, read-out: % of control remaining
T5 construct: gene PIK3CD
Source text: as §1

[9] = biological target: PAK2(h) (Homo sapiens, UniProt Q13177); details: atp_concentration=90, read-out: % of control remaining
Source text: as §1

[10] = biological target: mTOR(h) (Homo sapiens, UniProt P42345); details: atp_concentration=70, read-out: % of control remaining
Source text: as §1

[11] = biological target: T6, IGF-1R(h) (Homo sapiens, UniProt P08069); details: atp_concentration=200, read-out: % of control remaining
T6 construct: gene IGF1R
Source text: as §1

[12] = biological target: T7, IKKα(h) (Homo sapiens, UniProt O15111); details: atp_concentration=10, read-out: % of control remaining
T7 construct: gene CHUK
T7 sequence (O15111 1-745): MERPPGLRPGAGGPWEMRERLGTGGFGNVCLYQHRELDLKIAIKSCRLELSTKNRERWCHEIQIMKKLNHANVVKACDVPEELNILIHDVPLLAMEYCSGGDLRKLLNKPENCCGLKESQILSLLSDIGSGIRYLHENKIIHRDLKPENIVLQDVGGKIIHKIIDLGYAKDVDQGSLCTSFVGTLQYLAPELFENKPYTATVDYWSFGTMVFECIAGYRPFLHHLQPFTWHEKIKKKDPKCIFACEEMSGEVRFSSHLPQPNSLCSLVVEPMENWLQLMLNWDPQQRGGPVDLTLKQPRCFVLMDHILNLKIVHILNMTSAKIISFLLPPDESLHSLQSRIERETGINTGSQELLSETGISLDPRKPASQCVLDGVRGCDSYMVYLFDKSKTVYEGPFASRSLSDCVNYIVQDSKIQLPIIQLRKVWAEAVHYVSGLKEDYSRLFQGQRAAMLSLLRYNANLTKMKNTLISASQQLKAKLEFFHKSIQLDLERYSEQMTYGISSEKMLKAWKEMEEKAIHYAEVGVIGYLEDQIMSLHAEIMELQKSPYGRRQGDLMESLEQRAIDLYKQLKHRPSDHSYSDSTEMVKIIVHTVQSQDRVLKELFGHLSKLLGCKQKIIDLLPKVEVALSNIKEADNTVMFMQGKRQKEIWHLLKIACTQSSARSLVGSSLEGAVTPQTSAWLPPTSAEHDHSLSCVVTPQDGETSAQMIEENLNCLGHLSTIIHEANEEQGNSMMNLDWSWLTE
Source text: as §1

[13] = biological target: T8, CK1γ1(h) (Homo sapiens, UniProt Q9HCP0); details: atp_concentration=15, read-out: % of control remaining
T8 construct: gene CSNK1G1
Source text: as §1

[14] = biological target: JAK2(h) (Homo sapiens, UniProt O60674); details: atp_concentration=45, read-out: % of control remaining
Source text: as §1

EGFR(h), sequence (P00533 whole entry): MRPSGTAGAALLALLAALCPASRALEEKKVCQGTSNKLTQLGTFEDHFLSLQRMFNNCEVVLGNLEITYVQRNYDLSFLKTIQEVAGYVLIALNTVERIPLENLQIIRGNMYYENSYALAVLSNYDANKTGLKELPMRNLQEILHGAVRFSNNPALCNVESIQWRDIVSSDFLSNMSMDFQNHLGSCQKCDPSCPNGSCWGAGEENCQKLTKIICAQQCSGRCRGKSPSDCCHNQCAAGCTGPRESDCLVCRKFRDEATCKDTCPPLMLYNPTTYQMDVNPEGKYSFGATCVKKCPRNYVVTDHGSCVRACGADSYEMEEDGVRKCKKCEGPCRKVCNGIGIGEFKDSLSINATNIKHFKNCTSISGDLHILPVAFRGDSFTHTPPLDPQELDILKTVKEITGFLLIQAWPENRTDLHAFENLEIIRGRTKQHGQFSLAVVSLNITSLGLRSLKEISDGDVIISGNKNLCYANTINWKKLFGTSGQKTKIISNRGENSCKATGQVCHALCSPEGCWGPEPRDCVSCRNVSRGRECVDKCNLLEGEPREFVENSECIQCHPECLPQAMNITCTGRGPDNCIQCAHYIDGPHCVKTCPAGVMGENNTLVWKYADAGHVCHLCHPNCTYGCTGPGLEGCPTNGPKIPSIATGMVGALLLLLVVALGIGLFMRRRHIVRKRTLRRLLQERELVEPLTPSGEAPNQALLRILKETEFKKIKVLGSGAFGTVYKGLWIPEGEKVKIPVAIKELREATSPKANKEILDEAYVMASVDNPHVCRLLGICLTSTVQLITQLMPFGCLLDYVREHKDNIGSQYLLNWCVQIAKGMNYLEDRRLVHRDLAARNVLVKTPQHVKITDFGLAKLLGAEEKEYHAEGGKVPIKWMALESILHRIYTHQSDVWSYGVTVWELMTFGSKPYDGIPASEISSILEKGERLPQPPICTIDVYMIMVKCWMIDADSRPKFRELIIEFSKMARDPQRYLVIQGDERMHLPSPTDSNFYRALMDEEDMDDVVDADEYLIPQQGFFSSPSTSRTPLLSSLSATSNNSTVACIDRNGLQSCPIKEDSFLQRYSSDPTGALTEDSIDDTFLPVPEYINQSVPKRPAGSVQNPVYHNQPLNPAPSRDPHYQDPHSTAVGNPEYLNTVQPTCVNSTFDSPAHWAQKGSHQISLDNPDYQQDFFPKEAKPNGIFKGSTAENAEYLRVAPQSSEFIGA
T6 sequence (P08069 whole entry): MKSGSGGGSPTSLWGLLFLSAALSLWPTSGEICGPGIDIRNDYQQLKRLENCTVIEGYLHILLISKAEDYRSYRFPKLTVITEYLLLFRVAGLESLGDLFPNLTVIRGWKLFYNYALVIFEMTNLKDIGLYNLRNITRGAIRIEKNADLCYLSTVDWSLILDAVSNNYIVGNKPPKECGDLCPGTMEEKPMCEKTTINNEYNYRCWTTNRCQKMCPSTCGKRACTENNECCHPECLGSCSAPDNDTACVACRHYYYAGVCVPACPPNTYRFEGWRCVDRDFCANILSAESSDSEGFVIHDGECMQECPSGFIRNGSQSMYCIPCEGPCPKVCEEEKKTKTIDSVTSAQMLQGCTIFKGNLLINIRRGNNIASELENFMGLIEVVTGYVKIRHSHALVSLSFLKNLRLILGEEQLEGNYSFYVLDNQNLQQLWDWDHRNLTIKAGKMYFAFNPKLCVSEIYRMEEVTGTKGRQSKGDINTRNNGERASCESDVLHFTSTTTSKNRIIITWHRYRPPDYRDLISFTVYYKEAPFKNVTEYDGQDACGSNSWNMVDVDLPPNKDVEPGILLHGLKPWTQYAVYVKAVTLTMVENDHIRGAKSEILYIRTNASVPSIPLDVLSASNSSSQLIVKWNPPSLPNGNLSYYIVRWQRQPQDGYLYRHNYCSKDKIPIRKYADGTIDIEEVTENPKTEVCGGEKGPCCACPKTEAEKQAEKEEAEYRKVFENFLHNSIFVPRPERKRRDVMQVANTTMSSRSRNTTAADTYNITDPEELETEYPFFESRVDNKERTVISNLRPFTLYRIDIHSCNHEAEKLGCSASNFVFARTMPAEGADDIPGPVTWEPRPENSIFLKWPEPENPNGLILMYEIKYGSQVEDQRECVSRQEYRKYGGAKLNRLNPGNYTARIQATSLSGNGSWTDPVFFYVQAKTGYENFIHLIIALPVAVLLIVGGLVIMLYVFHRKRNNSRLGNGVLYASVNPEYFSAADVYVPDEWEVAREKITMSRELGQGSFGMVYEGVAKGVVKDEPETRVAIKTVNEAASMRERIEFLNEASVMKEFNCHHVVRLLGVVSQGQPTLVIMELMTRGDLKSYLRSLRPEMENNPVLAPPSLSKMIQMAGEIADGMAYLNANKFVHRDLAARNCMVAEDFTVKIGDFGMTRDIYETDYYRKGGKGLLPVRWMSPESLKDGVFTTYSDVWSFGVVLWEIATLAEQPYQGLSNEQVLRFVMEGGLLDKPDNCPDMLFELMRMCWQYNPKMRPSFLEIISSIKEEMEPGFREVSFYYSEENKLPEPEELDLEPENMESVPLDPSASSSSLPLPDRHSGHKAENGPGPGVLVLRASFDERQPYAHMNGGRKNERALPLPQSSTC
T8 sequence (Q9HCP0 whole entry): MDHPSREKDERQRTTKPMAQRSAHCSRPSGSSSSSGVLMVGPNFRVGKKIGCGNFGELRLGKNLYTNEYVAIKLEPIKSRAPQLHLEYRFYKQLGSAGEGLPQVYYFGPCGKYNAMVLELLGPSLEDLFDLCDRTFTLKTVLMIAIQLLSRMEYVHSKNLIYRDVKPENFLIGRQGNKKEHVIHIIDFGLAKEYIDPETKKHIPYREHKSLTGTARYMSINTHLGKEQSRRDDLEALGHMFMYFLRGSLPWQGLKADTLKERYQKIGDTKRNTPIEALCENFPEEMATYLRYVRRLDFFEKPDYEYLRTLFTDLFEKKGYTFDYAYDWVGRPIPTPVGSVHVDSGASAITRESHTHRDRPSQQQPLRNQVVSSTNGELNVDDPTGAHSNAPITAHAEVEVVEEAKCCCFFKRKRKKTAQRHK
T2 sequence (Q13131 whole entry): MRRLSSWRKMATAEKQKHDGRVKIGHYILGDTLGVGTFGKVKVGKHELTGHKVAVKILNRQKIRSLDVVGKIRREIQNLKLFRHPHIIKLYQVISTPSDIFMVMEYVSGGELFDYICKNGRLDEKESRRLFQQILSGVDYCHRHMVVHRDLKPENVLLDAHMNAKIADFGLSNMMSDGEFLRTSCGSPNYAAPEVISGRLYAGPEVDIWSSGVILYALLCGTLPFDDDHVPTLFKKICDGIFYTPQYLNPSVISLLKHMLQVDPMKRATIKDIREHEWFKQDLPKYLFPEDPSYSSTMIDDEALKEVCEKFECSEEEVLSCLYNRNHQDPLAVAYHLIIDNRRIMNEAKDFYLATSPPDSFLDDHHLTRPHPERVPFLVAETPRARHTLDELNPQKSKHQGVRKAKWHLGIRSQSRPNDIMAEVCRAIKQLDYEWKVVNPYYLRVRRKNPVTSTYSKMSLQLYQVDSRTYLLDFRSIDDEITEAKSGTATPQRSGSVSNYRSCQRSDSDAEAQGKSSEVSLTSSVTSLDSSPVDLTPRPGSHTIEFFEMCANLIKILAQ
T2 sequence (P54619 whole entry partner): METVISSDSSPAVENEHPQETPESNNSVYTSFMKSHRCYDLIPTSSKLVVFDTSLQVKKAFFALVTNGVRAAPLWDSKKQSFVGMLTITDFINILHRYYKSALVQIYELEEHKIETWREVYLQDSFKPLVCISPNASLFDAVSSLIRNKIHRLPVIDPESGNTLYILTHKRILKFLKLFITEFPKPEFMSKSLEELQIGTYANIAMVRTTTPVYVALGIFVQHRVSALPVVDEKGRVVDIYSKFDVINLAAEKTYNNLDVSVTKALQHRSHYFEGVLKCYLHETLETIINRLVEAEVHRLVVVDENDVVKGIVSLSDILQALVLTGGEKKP
T2 sequence (Q9Y478 whole entry partner): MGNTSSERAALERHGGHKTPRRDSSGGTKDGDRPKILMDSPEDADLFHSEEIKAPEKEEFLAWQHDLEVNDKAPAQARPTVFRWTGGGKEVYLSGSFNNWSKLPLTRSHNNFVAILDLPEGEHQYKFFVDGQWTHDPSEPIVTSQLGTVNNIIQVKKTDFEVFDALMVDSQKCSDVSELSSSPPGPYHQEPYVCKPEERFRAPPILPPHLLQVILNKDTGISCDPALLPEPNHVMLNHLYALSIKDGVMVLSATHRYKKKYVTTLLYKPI
T3 sequence (Q15418 whole entry): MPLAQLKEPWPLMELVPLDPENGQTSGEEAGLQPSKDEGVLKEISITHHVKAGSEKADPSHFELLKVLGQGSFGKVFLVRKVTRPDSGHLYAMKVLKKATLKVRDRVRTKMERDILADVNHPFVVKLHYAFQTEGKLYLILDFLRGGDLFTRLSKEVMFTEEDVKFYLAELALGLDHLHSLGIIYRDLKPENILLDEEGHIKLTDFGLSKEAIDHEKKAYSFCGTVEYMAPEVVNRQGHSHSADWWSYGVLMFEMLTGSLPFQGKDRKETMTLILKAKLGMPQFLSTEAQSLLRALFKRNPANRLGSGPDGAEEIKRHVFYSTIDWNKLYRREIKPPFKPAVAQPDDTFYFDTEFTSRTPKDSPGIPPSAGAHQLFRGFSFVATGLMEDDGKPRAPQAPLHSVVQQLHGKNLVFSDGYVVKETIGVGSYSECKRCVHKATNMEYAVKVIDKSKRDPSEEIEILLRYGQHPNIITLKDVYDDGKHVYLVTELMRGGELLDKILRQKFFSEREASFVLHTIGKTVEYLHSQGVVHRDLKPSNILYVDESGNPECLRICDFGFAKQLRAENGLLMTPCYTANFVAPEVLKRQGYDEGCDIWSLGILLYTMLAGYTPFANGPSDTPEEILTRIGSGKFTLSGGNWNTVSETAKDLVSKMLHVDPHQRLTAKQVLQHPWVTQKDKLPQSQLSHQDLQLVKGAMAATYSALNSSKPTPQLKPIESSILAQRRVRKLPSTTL

**Q.** How did the remaining activity at 10 µM ([1]; batch_name=ASAP-0008327-001) turn out when CC(C)C(Nc1ncnc2[nH]ccc12)c1ccc2c(c1)S(=O)(=O)CCC2 (stereo not drawn) [ASAP-0008327] was run?
**A.** 102%

**Q.** And the remaining activity at 10 µM ([2]; batch_name=ASAP-0008327-001)?
**A.** 81%

**Q.** And the remaining activity at 10 µM ([3]; batch_name=ASAP-0008327-001)?
**A.** 94%

**Q.** What about the remaining activity at 10 µM ([4]; batch_name=ASAP-0008327-001) of the same compound?
**A.** 82%

**Q.** And the remaining activity at 10 µM ([5]; batch_name=ASAP-0008327-001)?
**A.** 92%

**Q.** And the remaining activity at 10 µM ([6]; batch_name=ASAP-0008327-001)?
**A.** 88%

**Q.** What about the remaining activity at 10 µM ([7]; batch_name=ASAP-0008327-001) of the same compound?
**A.** 105%

**Q.** And the remaining activity at 10 µM ([8]; batch_name=ASAP-0008327-001)?
**A.** 101%

**Q.** And the remaining activity at 10 µM ([9]; batch_name=ASAP-0008327-001)?
**A.** 110%

**Q.** And the remaining activity at 10 µM ([10]; batch_name=ASAP-0008327-001)?
**A.** 102%

**Q.** And the remaining activity at 10 µM ([11]; batch_name=ASAP-0008327-001)?
**A.** 88%

**Q.** What about the remaining activity at 10 µM ([12]; batch_name=ASAP-0008327-001) of the same compound?
**A.** 91%

**Q.** What about the remaining activity at 10 µM ([13]; batch_name=ASAP-0008327-001) of the same compound?
**A.** 102%

**Q.** What about the remaining activity at 10 µM ([14]; batch_name=ASAP-0008327-001) of the same compound?
**A.** 110%

**Q.** For COc1ccc([C@@H](Cc2nnn[nH]2)NC(=O)c2ncnc3[nH]ccc23)cc1 [ASAP-0008340], which remaining activity at 10 µM ([1]; batch_name=ASAP-0008340-001) is on record?
**A.** 96%

**Q.** And the remaining activity at 10 µM ([2]; batch_name=ASAP-0008340-001)?
**A.** 85%

**Q.** What about the remaining activity at 10 µM ([3]; batch_name=ASAP-0008340-001) of the same compound?
**A.** 101%

**Q.** What about the remaining activity at 10 µM ([4]; batch_name=ASAP-0008340-001) of the same compound?
**A.** 79%

**Q.** What about the remaining activity at 10 µM ([5]; batch_name=ASAP-0008340-001) of the same compound?
**A.** 98%

**Q.** And the remaining activity at 10 µM ([6]; batch_name=ASAP-0008340-001)?
**A.** 91%

**Q.** What about the remaining activity at 10 µM ([7]; batch_name=ASAP-0008340-001) of the same compound?
**A.** 102%

**Q.** And the remaining activity at 10 µM ([8]; batch_name=ASAP-0008340-001)?
**A.** 99%

**Q.** What about the remaining activity at 10 µM ([9]; batch_name=ASAP-0008340-001) of the same compound?
**A.** 102%

**Q.** And the remaining activity at 10 µM ([10]; batch_name=ASAP-0008340-001)?
**A.** 95%

**Q.** And the remaining activity at 10 µM ([11]; batch_name=ASAP-0008340-001)?
**A.** 106%

**Q.** What about the remaining activity at 10 µM ([12]; batch_name=ASAP-0008340-001) of the same compound?
**A.** 99%

**Q.** What about the remaining activity at 10 µM ([13]; batch_name=ASAP-0008340-001) of the same compound?
**A.** 95%

**Q.** What about the remaining activity at 10 µM ([14]; batch_name=ASAP-0008340-001) of the same compound?
**A.** 102%

**Q.** With CC(C)[C@@H](Nc1ncnc2[nH]c(-c3cnn(C)c3C#N)cc12)c1ccc2c(n1)OCCO2 [ASAP-0008418] as the compound, how does the remaining activity at 10 µM ([1]; batch_name=ASAP-0008418-001) read?
**A.** 81%

**Q.** What about the remaining activity at 10 µM ([2]; batch_name=ASAP-0008418-001) of the same compound?
**A.** 81%

**Q.** What about the remaining activity at 10 µM ([3]; batch_name=ASAP-0008418-001) of the same compound?
**A.** 116%

**Q.** What about the remaining activity at 10 µM ([4]; batch_name=ASAP-0008418-001) of the same compound?
**A.** 80%

**Q.** And the remaining activity at 10 µM ([5]; batch_name=ASAP-0008418-001)?
**A.** 145%

**Q.** What about the remaining activity at 10 µM ([6]; batch_name=ASAP-0008418-001) of the same compound?
**A.** 100%

**Q.** What about the remaining activity at 10 µM ([7]; batch_name=ASAP-0008418-001) of the same compound?
**A.** 92%

**Q.** And the remaining activity at 10 µM ([8]; batch_name=ASAP-0008418-001)?
**A.** 55%

**Q.** What about the remaining activity at 10 µM ([9]; batch_name=ASAP-0008418-001) of the same compound?
**A.** 95%

**Q.** And the remaining activity at 10 µM ([10]; batch_name=ASAP-0008418-001)?
**A.** 83%

**Q.** And the remaining activity at 10 µM ([11]; batch_name=ASAP-0008418-001)?
**A.** 108%

**Q.** And the remaining activity at 10 µM ([12]; batch_name=ASAP-0008418-001)?
**A.** 111%

**Q.** And the remaining activity at 10 µM ([13]; batch_name=ASAP-0008418-001)?
**A.** 87%

**Q.** And the remaining activity at 10 µM ([14]; batch_name=ASAP-0008418-001)?
**A.** 101%
